Assay results: article PMC7502707, “Characterization and validation of a preventative therapy for hypertrophic cardiomyopathy in a murine model of the disease” (Proceedings of the National Academy of Sciences of the …, 2020)

How the values were obtained:
[1] = system: myocytes isolated from wt and cTnI-G203S mice; test: MTT assay (formation of formazan) in myocytes isolated from treated mice; type: in vivo, mouse; conditions: myocytes from precardiomyopathic cTnI-G203S mice treated 10 μM i.p. 3×/wk/5 wk from 20 wk
Description: The rate of reduction of MTT (Sigma-Aldrich) to formazan by the mitochondrial electron transport chain was measured in intact mouse cardiac myocytes, as previously described ([22], [25]). Each n represents number of replicates for each treatment group from cardiac myocytes isolated from a total of six wt [AID(S)-TAT], four cTnI-G203S [AID(S)-TAT], and three (AID-TAT) mice. Detailed methods are provided in SI Appendix. […]
The rate of reduction of 3-(4,5-Dimethyl-2-thiazolyl)-2,5-diphenyl-2H-tetrazolium bromide (MTT, Sigma-Aldrich, St. Louis, Missouri) to formazan by the mitochondrial electron transport chain was measured in intact mouse cardiac myocytes as previously described (1, 9). This reaction is dependent upon the presence of reduced nicotinamide adenine dinucleotide (NADH) and reduced nicotinamide adenine dinucleotide phosphate (NADPH), and intact mitochondrial electron transport (10). Cardiac myocytes were treated with relevant drugs in 96 well plates. MTT was added to each well to a final concentration of 0.5 mg/ml and the rate of the increase in absorbance immediately measured using a spectrophotometer at 37°C (PowerWave XS, 570 nm, reference wavelength of 620 nm). The rate of the increase in absorbance in response to treatments was expressed as a percentage of the rate of the increase prior to the addition of treatments. Each n represents number of replicates for each treatment group from cardiac myocytes isolated from a total of 6 wt (AID[S]- TAT), 4 cTnI-G203S (AID[S]-TAT), and 3 (AID-TAT) mice.
Immunoblot of ICa-L protein

[2] = system: myocytes isolated from wt and cTnI-G203S mice; test: Confocal imaging of F-actin (phalloidin) in myocytes from treated mice; type: in vivo, mouse; conditions: myocytes from cTnI-G203S mice treated 10 μM 3×/wk/5 wk, Pre HCM Rx
Description: Following completion of treatment regimens, myocytes were isolated and prepared for confocal imaging based on previously described methods ([29]). Detailed methods are provided in SI Appendix.
Echocardiographic measurement of left ventricular function were performed on mice under light methoxyflurane anesthesia using an i13L probe on a Vivid 7 Dimension ultrasound system (GE Healthcare, Little Chalfont, United Kingdom) as previously described (4, 7). Echocardiographic measurements were taken on M-mode in triplicate from separate mice at a sweep speed of 200 mm/s. Each n represents the average of quantitative measurements from wt or cTnI-G203S mice for each treatment group. […] FS was calculated by the formula [(LVEDD-LVESD)/EDD] x 100.
Cell size was determined as previously described (16). […]
To measure kidney toxicity, urea and creatinine concentration was assessed using QuantiChrom Urea and Creatinine assay kits respectively (BioAssay Systems, Hayward CA). To measure liver toxicity, alanine transaminase (ALT) and aspartate transaminase (AST) concentration was measured using Alanine Transaminase and Aspartate Transaminase assay kits respectively (BioAssay Systems, Hayward CA). […]

[3] = system: wt and cTnI-G203S cardiac myocytes; set-up: method as in PMID 19166857, PMID 24969422, PMID 24958783; conditions: cited from earlier work

Sequence: QQLEEDLKGYLDWITQAE [AID-TAT]
- increase in metabolic activity (formazan from MTT) following BayK(−) [1]: reduced this response to a level comparable to that observed in wt myocytes
- F-actin organization [2]: F-actin organization comparable to wt myocytes
- elevated Ψm in response to activation of ICa-L [3]: attenuates elevated Ψm
